Measured values as given in patent US20260125378A2, “Heterocyclic Compounds” (BeOne Medicines I GmbH, priority 2023, published 2026).

Legend:
[1] = biological target: T1, Full length DGKζ (in-house protein M1-V929) (Homo sapiens, UniProt Q13574); experiment: Biochemical DGK IC50 assay (ADP-Glo, lipid micelle substrate), DGKζ; conditions: 1 hour preincubation, 1 hour reaction, room temperature
T1 construct: His (N); TEV site (N); made in house; host or cells: Sf9 insect cells (Bac-to-Bac baculovirus)
T1 sequence (Q13574 1-929 isoform Q13574-4): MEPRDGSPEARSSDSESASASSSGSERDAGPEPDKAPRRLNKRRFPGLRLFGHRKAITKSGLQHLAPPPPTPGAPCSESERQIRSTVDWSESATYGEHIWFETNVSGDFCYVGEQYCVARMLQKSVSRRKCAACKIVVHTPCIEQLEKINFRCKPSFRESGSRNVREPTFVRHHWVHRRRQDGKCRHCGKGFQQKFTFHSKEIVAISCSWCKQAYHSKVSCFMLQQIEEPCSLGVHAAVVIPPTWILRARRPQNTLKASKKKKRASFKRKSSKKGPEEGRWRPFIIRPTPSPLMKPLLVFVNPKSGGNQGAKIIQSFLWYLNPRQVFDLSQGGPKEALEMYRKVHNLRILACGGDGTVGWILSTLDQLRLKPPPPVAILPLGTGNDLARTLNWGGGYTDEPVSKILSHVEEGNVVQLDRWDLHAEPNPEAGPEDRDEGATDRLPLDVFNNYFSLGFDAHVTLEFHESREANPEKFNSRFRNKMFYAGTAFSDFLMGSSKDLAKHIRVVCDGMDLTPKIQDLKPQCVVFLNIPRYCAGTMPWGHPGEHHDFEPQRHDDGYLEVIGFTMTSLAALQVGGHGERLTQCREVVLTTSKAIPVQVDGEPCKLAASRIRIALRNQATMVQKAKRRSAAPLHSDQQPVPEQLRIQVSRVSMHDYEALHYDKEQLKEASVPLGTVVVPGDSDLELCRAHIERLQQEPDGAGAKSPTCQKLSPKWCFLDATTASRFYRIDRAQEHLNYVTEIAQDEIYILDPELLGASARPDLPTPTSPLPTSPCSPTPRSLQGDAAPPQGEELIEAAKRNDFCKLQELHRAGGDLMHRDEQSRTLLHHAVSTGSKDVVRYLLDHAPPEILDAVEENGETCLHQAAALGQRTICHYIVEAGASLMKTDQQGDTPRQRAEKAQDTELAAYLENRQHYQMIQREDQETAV
Summary of the method: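 Full-length human DGKζ (M1-V929, His-TEV tagged, Sf9 baculovirus-expressed) with DAG/PS lipid micelle substrate in octyl glucoside, at room temperature in 50 mM HEPES, 10 mM MgCl2, 0.01 mM CaCl2 buffer.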

[2] = biological target: T2, Full length DGKα (D21-10BG, SignalChem) (Homo sapiens, UniProt P23743); experiment: Biochemical DGK IC50 assay (ADP-Glo, lipid micelle substrate), DGKα; conditions: 1 hour preincubation, 1 hour reaction, room temperature
T2 construct: Full length DGKα (D21-10BG, SignalChem); purchased SignalChem D21-10BG
T2 sequence (P23743 whole entry): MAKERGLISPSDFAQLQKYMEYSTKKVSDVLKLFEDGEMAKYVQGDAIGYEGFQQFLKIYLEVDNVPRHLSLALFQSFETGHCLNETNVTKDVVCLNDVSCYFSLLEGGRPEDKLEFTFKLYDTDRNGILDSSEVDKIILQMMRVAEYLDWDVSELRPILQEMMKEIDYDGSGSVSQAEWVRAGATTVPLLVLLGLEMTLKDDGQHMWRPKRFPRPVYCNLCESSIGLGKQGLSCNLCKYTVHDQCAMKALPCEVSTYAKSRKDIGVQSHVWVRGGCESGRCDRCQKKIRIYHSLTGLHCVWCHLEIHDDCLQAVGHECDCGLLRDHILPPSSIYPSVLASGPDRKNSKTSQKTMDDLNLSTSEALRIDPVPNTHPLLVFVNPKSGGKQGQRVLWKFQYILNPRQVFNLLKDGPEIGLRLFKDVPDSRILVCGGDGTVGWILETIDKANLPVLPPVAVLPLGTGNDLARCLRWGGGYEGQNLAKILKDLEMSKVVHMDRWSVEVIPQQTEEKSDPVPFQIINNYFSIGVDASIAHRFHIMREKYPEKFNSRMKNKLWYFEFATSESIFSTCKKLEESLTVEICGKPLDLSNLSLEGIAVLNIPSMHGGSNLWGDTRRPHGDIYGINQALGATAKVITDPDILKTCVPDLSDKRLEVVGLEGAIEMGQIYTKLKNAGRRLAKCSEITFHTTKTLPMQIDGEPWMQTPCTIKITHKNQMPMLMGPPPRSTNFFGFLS
Summary of the method: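 Full-length human DGKα with DAG/PS lipid micelle substrate (in octyl glucoside buffer), reacted 1 h at room temperature in 50 mM HEPES, 10 mM MgCl2, 0.01 mM CaCl2, 0.1 mM Na3VO4, 0.01% BSA, 0.005% Tween-20. ADP formed read by ADP-Glo luminescence; IC50 from inhibition across increasing compound concentrations.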

| SMILES | IC50 [1] [µM] | IC50 [2] [µM] |
| --- | --- | --- |
| CC[C@H]1CN(C(C)c2ccc3ncc(C)nc3c2)[C@H](CC)CN1c1nc(=O)n(C)c2c1nc(CC#N)n2C (single isomer, unassigned) [Compound A51a] | 0.003 | 14 |
| CCn1c(CC#N)nc2c(N3C[C@@H](C)N(C(C)c4ccc(C)cc4C(F)(F)F)C[C@@H]3C)nc(=O)n(C)c21 (single isomer, unassigned) [Compound A116a] | 7.76 | > 150 |
| CC(c1ccc2nccnc2c1)N1C[C@H](C)N(c2nc(=O)n(C)c3c2nc(CC#N)n3C)C[C@H]1C (stereo partly drawn) [Compound A48, 2-(6-((2S,5R)-2,5-dimethyl-4-(1-(quinoxalin-6-yl)ethyl)piperazin-1-yl)-3,9-dimethyl-2-oxo-3,9-dihydro-2H-purin-8-yl)acetonitrile] | 0.029 | 44.6 |
| Cc1cnc2ccc(C(C)N3C[C@H](C)N(c4c(F)c(=O)n(C)c5c4nc(CC#N)n5C)C[C@H]3C)cc2n1 (single isomer, unassigned) [Compound A23a] | 0.008 | 63.2 |
| CC(c1ccc2nccnc2c1)N1C[C@H](C)N(c2cc(=O)n(C)c3sc(CC#N)nc23)C[C@H]1C (single isomer, unassigned) [Compound A194a] | 0.007 | 3.95 |
| CCc1nc2cc(C(C)N3C[C@H](C)N(c4nc(=O)n(C)c5c4nc(CC#N)n5CC)C[C@H]3C)ccc2s1 (single isomer, unassigned) [Compound A95a] | 0.011 | 24.7 |
| CCn1c(CC#N)nc2c(N3C[C@@H](C)N(C(C)c4cc(C)c5c(c4)OC(C)(C)O5)C[C@@H]3C)nc(=O)n(C)c21 (stereo partly drawn) [Compound A177, 2-(6-((2S,5R)-2,5-dimethyl-4-(1-(2,2,7-trimethylbenzo[d][1,3]dioxol-5-yl)ethyl)piperazin-1-yl)-9-ethyl-3-methyl-2-oxo-3,9-dihydro-2H-purin-8-yl)acetonitrile] | 0.168 | 72.6 |
| CCn1c(CC#N)nc2c(N3C[C@@H](C)N(C(C)c4cc5c(cc4F)OC(C)(C)CO5)C[C@@H]3C)nc(=O)n(C)c21 (single isomer, unassigned) [Compound A156a] | 0.496 | 68.6 |
| CC[C@@H]1CN(c2nc(=O)n(C)c3c2nc(CC#N)n3C)[C@@H](C)CN1C(C)c1ccc2ncc(C)nc2c1 (single isomer, unassigned) [Compound A50b] | 0.332 | 13.6 |
| CCn1c(CC#N)nc2c(N3C[C@@H](C)N(C(C)c4ccc5c(c4)OC(C)(C)CC5)C[C@@H]3C)nc(=O)n(C)c21 (single isomer, unassigned) [Compound A94b] | 0.532 | > 150 |
| CC[C@H]1CN(C(C)c2ccc(F)cc2C(F)(F)F)[C@H](CC)CN1c1nc(=O)n(C)c2c1nc(CC#N)n2C (single isomer, unassigned) [Compound A34b] | 0.009 | > 10 |
| CC(c1ccc(F)cc1C(F)(F)F)N1C[C@H](C)N(c2cc(=O)n(C)c3c2nc(CC#N)n3C)C[C@H]1C (stereo partly drawn) [Compound A2, 2-(7-((2S,5R)-4-(1-(4-fluoro-2-(trifluoromethyl)phenyl)ethyl)-2,5-dimethylpiperazin-1-yl)-3,4-dimethyl-5-oxo-4,5-dihydro-3H-imidazo[4,5-b]pyridin-2-yl)acetonitrile] | 0.092 | > 150 |
| CCn1c(CC#N)nc2c(N3C[C@@H](C)N(C(C)c4cc(F)c5c(c4)OC(C)(C)O5)C[C@@H]3C)nc(=O)n(C)c21 (single isomer, unassigned) [Compound A173a] | 0.012 | 51 |
| CCn1c(CC#N)nc2c(N3C[C@@H](C)N(C(C)c4ccc5c(c4)C(=O)N(C)C5)C[C@@H]3C)nc(=O)n(C)c21 (stereo partly drawn) [Compound A100, 2-(6-((2S,5R)-2,5-dimethyl-4-(1-(2-methyl-3-oxoisoindolin-5-yl)ethyl)piperazin-1-yl)-9-ethyl-3-methyl-2-oxo-3,9-dihydro-2H-purin-8-yl)acetonitrile] | 4.11 | > 150 |
| CCn1c(CC#N)nc2c(N3C[C@@H](C)N(C(C)c4ccc(F)cc4C(F)(F)F)C[C@@H]3C)nc(=O)n(C)c21 (single isomer, unassigned) [Compound A35a] | 2.76 | > 150 |
| Cc1ccc(C(C)N2C[C@H](C)N(c3cc(=O)n(C)c4c3nc(CC#N)n4C)C[C@H]2C)cc1 (single isomer, unassigned) [Compound A5b] | 0.088 | 0.616 |
| CCn1c(CC#N)nc2c(N3C[C@@H](C)N(C(C)c4cccc(CN5CCOCC5)c4)C[C@@H]3C)nc(=O)n(C)c21 (stereo partly drawn) [Compound A142, 2-(6-((2S,5R)-2,5-dimethyl-4-(1-(3-(morpholinomethyl)phenyl)ethyl)piperazin-1-yl)-9-ethyl-3-methyl-2-oxo-3,9-dihydro-2H-purin-8-yl)acetonitrile] | 6.3 | > 150 |
| CCn1c(CC#N)nc2c(N3C[C@@H](C)N(C(C)c4cc5c(cc4F)OCC(C)(C)O5)C[C@@H]3C)nc(=O)n(C)c21 (single isomer, unassigned) [Compound A157b] | 0.346 | 55.7 |
| CCn1c(CC#N)nc2c(N3C[C@@H](C)N(C(C)c4ccc5c(=O)cc(C)n(C)c5c4)C[C@@H]3C)nc(=O)n(C)c21 (stereo partly drawn) [Compound A155, 2-(6-((2S,5R)-4-(1-(1,2-dimethyl-4-oxo-1,4-dihydroquinolin-7-yl)ethyl)-2,5-dimethylpiperazin-1-yl)-9-ethyl-3-methyl-2-oxo-3,9-dihydro-2H-purin-8-yl)acetonitrile] | 1.21 | 101 |
| CCn1c(CC#N)nc2c(N3C[C@@H](C)N(C(C)c4ccnc(C(C)(C)C)c4)C[C@@H]3C)nc(=O)n(C)c21 (stereo partly drawn) [Compound A129, 2-(6-((2S,5R)-4-(1-(2-(tert-butyl)pyridin-4-yl)ethyl)-2,5-dimethylpiperazin-1-yl)-9-ethyl-3-methyl-2-oxo-3,9-dihydro-2H-purin-8-yl)acetonitrile] | 0.004 | > 150 |
| CCn1c(CC#N)nc2c(N3C[C@@H](C)N(C(C)c4cccc(C(F)(F)F)n4)C[C@@H]3C)nc(=O)n(C)c21 (single isomer, unassigned) [Compound A118a] | 4.82 | > 150 |
| CCn1c(CC#N)nc2c(N3C[C@@H](C)N(C(C)c4ccc5sc(C(C)C)nc5c4)C[C@@H]3C)nc(=O)n(C)c21 (stereo partly drawn) [Compound A96, 2-(9-ethyl-6-((2S,5R)-4-(1-(2-isopropylbenzo[d]thiazol-5-yl)ethyl)-2,5-dimethylpiperazin-1-yl)-3-methyl-2-oxo-3,9-dihydro-2H-purin-8-yl)acetonitrile] | 0.063 | 49.6 |
| CCn1c(CC#N)nc2c(N3C[C@@H](C)N(C(C)c4ccnc5c4OCCC5(F)F)C[C@@H]3C)nc(=O)n(C)c21 (single isomer, unassigned) [Compound A103a] | 0.524 | > 150 |
| CC(c1ccc(F)cc1C(F)(F)F)N1C[C@H](C)N(c2cc(=O)n(C)c3sc(CC#N)nc23)C[C@H]1C (stereo partly drawn) [Compound A195, 2-(7-((2S,5R)-4-(1-(4-fluoro-2-(trifluoromethyl)phenyl)ethyl)-2,5-dimethylpiperazin-1-yl)-4-methyl-5-oxo-4,5-dihydrothiazolo[5,4-b]pyridin-2-yl)acetonitrile] | 0.025 | > 150 |
| CCn1c(CC#N)nc2c(N3C[C@@H](C)N(C(C)c4ccc(=O)n(C)c4)C[C@@H]3C)nc(=O)n(C)c21 (stereo partly drawn) [Compound A106, 2-(6-((2S,5R)-2,5-dimethyl-4-(1-(1-methyl-6-oxo-1,6-dihydropyridin-3-yl)ethyl)piperazin-1-yl)-9-ethyl-3-methyl-2-oxo-3,9-dihydro-2H-purin-8-yl)acetonitrile] | > 10 | > 150 |
| CCn1c(CC#N)nc2c(N3C[C@@H](C)N(C(C)c4cccc(OC(F)(F)F)c4)C[C@@H]3C)nc(=O)n(C)c21 (stereo partly drawn) [Compound A44, 2-(6-((2S,5R)-2,5-dimethyl-4-(1-(3-(trifluoromethoxy)phenyl)ethyl)piperazin-1-yl)-9-ethyl-3-methyl-2-oxo-3,9-dihydro-2H-purin-8-yl)acetonitrile] | 0.034 | 51.2 |
| COC[C@H]1CN(C(C)c2ccc3ncc(C)nc3c2)[C@H](C)CN1c1nc(=O)n(C)c2c1nc(CC#N)n2C (single isomer, unassigned) [Compound A13a] | 5.06 | > 150 |
| CCn1c(CC#N)nc2c(N3C[C@@H](C)N(C(C)c4ccc5c(c4)OC(C)(CC)O5)C[C@@H]3C)nc(=O)n(C)c21 (stereo partly drawn) [Compound A168, 2-(9-ethyl-6-((2S,5R)-4-(1-(2-ethyl-2-methylbenzo[d][1,3]dioxol-5-yl)ethyl)-2,5-dimethylpiperazin-1-yl)-3-methyl-2-oxo-3,9-dihydro-2H-purin-8-yl)acetonitrile] | 0.026 | 64.3 |
| CCn1c(CC#N)nc2c(N3C[C@@H](C)N(C(C)c4ccc5c(c4)C(C)(C)CO5)C[C@@H]3C)nc(=O)n(C)c21 (stereo partly drawn) [Compound A183, 2-(6-((2S,5R)-4-(1-(3,3-dimethyl-2,3-dihydrobenzofuran-5-yl)ethyl)-2,5-dimethylpiperazin-1-yl)-9-ethyl-3-methyl-2-oxo-3,9-dihydro-2H-purin-8-yl)acetonitrile] | 0.004 | > 150 |
| CCn1c(CC#N)nc2c(N3C[C@@H](C)N(C(C)c4cc5c(cn4)OCC(C)(C)O5)C[C@@H]3C)nc(=O)n(C)c21 (stereo partly drawn) [Compound A75, 2-(6-((2S,5R)-4-(1-(2,2-dimethyl-2,3-dihydro-[1,4]dioxino[2,3-c]pyridin-7-yl)ethyl)-2,5-dimethylpiperazin-1-yl)-9-ethyl-3-methyl-2-oxo-3,9-dihydro-2H-purin-8-yl)acetonitrile] | 0.253 | > 150 |
